Several values for one entry are separate records, joined by “and”; a condition that tells them apart may be missing. Equal values may be shown once. Inconclusive results and toxic doses are left out.
System: P388 leukemia ip, CD2F1 mice, survival T/C
Assay: NCI In Vivo Anticancer Drug Screen. Data for tumor model P388 Leukemia (intraperitoneal) in CD2F1 (CDF1) mice
Settings: endpoint: median survival time, higher = longer survival
Procedure, shortened: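 Mice carrying the transplanted tumor received test compound or vehicle. Survival was recorded in each group, and the value is the treated-group measurement divided by that of the vehicle-treated control group.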

[1] = dose: 60.0 mg/kg/injection, schedule: Q01DX005 (ip), vehicle: saline with Tween-80
[2] = dose: 120.0 mg/kg/injection, schedule: Q01DX005 (ip), vehicle: saline with Tween-80
[3] = dose: 240.0 mg/kg/injection, schedule: Q01DX005 (ip), vehicle: saline with Tween-80
[4] = dose: 50.0 mg/kg/injection, schedule: Q01DX009 (ip), vehicle: saline
[5] = dose: 100.0 mg/kg/injection, schedule: Q01DX009 (ip), vehicle: saline
[6] = dose: 100.0 mg/kg/injection, schedule: Q01DX009 (ip), vehicle: saline with Tween-80
[7] = dose: 200.0 mg/kg/injection, schedule: Q01DX009 (ip), vehicle: saline with Tween-80
[8] = dose: 400.0 mg/kg/injection, schedule: Q01DX009 (ip), vehicle: saline with Tween-80

What does the source list for `CC(=O)NC1CCCCC1C1CCC(N)CC1` (centres undefined)?
T/C (dose: 50.0 mg/kg/injection, schedule: Q01DX005 (ip), vehicle: saline with Tween-80): 99 % of control; T/C (dose: 100.0 mg/kg/injection, schedule: Q01DX005 (ip), vehicle: saline with Tween-80): 102 % of control; T/C (dose: 200.0 mg/kg/injection, schedule: Q01DX005 (ip), vehicle: saline with Tween-80): 87 % of control

`COc1ccc(/C=C/c2nc(Nc3ccc(O)c(CN4CCCCC4)c3)c3ccccc3n2)cc1` was tested. Which T/C (dose: 50.0 mg/kg/injection, schedule: Q01DX009 (ip), vehicle: distilled water + alcohol) did it give?
The T/C was 99 % of control.

What about the T/C (dose: 100.0 mg/kg/injection, schedule: Q01DX009 (ip), vehicle: distilled water + alcohol) of the same compound?
Its T/C is 100 % of control.

And the T/C (dose: 200.0 mg/kg/injection, schedule: Q01DX009 (ip), vehicle: distilled water + alcohol)?
Its T/C is 91 % of control.

Which results are given for `C=C(C)COc1ccc(C)cc1Br`?
T/C (dose: 50.0 mg/kg/injection, schedule: Q01DX005 (ip), vehicle: Klucel (hydroxypropylcellulose) (HPC)): 101 % of control; T/C (dose: 100.0 mg/kg/injection, schedule: Q01DX005 (ip), vehicle: Klucel (hydroxypropylcellulose) (HPC)): 103 % of control; T/C (dose: 200.0 mg/kg/injection, schedule: Q01DX005 (ip), vehicle: Klucel (hydroxypropylcellulose) (HPC)): 113 % of control

Which T/C [1] does the source give for `Cc1c(NC(=O)Nc2ccc(F)cc2)c(=O)n(-c2ccccc2)n1C` here?
The T/C was 114 % of control.

And the T/C [2]?
Its T/C is 99 % of control.

What about the T/C [3] of the same compound?
The T/C was 96 % of control.

`O=S(=O)(Cl)C(F)(F)C(F)(F)F` was tested. Which T/C [4] did it give?
The T/C was 100 % of control.

What about the T/C [5] of the same compound?
Its T/C is 110 % of control.

And the T/C (dose: 200.0 mg/kg/injection, schedule: Q01DX009 (ip), vehicle: saline)?
Its T/C is 103 % of control.

With `COc1ccc(/C=C/c2ccc3ccccc3n2)c(OC)c1` as the compound, how does the T/C [6] read?
Its T/C is 100 % of control.

And the T/C [7]?
The T/C was 100 % of control.

And the T/C [8]?
The T/C was 100 % of control.

Which results are given for `O=C1Nc2ccccc2S/C1=C\c1ccccc1C(F)(F)F`?
T/C [4]: 108 % of control; T/C [5]: 106 % of control

Which T/C (dose: 50.0 mg/kg/injection, schedule: Q01DX009 (ip), vehicle: Klucel (hydroxypropylcellulose) (HPC)) does the source give for `CC(C)CSc1nc2ccc(NC(=O)/C=C/C(=O)O)cc2s1` here?
The T/C was 95 % of control.

And the T/C (dose: 100.0 mg/kg/injection, schedule: Q01DX009 (ip), vehicle: Klucel (hydroxypropylcellulose) (HPC))?
The T/C was 95 % of control.

How did the T/C (dose: 100.0 mg/kg/injection, schedule: Q01DX001 (ip), vehicle: saline with Tween-80) turn out when `O=C1Nc2ccccc2C1NC(=S)Nc1ccc(Cl)cc1` (centres undefined) was run?
Its T/C is 87 % of control.

What about the T/C (dose: 200.0 mg/kg/injection, schedule: Q01DX001 (ip), vehicle: saline with Tween-80) of the same compound?
The T/C was 86 % of control.

With `COC(=O)/C(=C/c1ccccc1)N=[N+]=[N-]` as the compound, how does the T/C [1] read?
Its T/C is 107 % of control.

And the T/C [2]?
Its T/C is 110 % of control.

And the T/C [3]?
Its T/C is 117 % of control.

For `O=C(NC1c2ccccc2Oc2ccccc21)c1ccccc1`, which T/C (dose: 12.5 mg/kg/injection, schedule: Q04DX003 (ip), vehicle: distilled water + Tween-80) is on record?
Its T/C is 93 % of control.

What about the T/C (dose: 25.0 mg/kg/injection, schedule: Q04DX003 (ip), vehicle: distilled water + Tween-80) of the same compound?
The T/C was 92 % of control.

What about the T/C (dose: 50.0 mg/kg/injection, schedule: Q04DX003 (ip), vehicle: distilled water + Tween-80) of the same compound?
Its T/C is 93 % of control.

What about the T/C (dose: 100.0 mg/kg/injection, schedule: Q04DX003 (ip), vehicle: distilled water + Tween-80) of the same compound?
Its T/C is 93 % of control.

With `Cc1ccc(C(=O)C(c2nc3n(c2O)/C(=N/C(=O)Nc2ccc(Cl)cc2)N=N3)c2nc3n(c2O)/C(=N/C(=O)Nc2ccc(Cl)cc2)N=N3)cc1` as the compound, how does the T/C (dose: 60.0 mg/kg/injection, schedule: Q01DX005 (ip), vehicle: saline) read?
The T/C was 99 % of control.

And the T/C (dose: 120.0 mg/kg/injection, schedule: Q01DX005 (ip), vehicle: saline)?
Its T/C is 97 % of control.

What about the T/C (dose: 240.0 mg/kg/injection, schedule: Q01DX005 (ip), vehicle: saline) of the same compound?
Its T/C is 87 % of control.

For `O=[N+]([O-])c1ccc(/C=C/Sc2ccccc2)o1`, which T/C (dose: 50.0 mg/kg/injection, schedule: Q01DX009 (ip), vehicle: suspension in saline) is on record?
Its T/C is 99 % of control.

And the T/C (dose: 100.0 mg/kg/injection, schedule: Q01DX009 (ip), vehicle: suspension in saline)?
The T/C was 98 % of control.

What does the source list for `CC(=O)c1ccc(-c2ccc(C(C)=O)cc2)cc1`?
T/C (dose: 50.0 mg/kg/injection, schedule: Q01DX009 (ip), vehicle: saline with Tween-80): 96 % of control; T/C [6]: 100 % of control; T/C [7]: 87 % of control; T/C [8]: 87 % of control

How did the T/C [4] turn out when `CCCCCCCCCCCCc1ccc(C[N+](C)(C)CC[N+](C)(C)Cc2ccc(CCCCCCCCCCCC)cc2)cc1` was run?
The T/C was 104 % of control.

Which T/C (dose: 12.5 mg/kg/injection, schedule: Q01DX005 (ip), vehicle: saline) does the source give for `C=C=CON1CCCCC1` here?
The T/C was 99 % of control.

And the T/C (dose: 25.0 mg/kg/injection, schedule: Q01DX005 (ip), vehicle: saline)?
Its T/C is 104 % of control.

What about the T/C (dose: 50.0 mg/kg/injection, schedule: Q01DX005 (ip), vehicle: saline) of the same compound?
The T/C was 100 % of control and 104 % of control.

Source: PubChem BioAssay AID330 (DTP/NCI, 2004)
